# Results reported in patent publication US12264146B2, “Rho kinase inhibitor, method for preparing same and uses thereof” (BEIJING INCREASE INNOVATIVE DRUG CO., LTD., priority 2018, dated 2025).
# Key:
# [1] = Toxicity test on endothelial cells EA.hy926, CCK-8 cell viability; assay type: cell-based; settings: human, 1000~0.32 μmol/L, 5-fold dilution, read-out: IC50 of Test compound (cytotoxicity on EA.hy926 cells)
# Protocol: In this test example, 31 groups, i.e., Groups 1 to 31, were set, in which Group 1 was a blank control group, Group 2 was a normal control group, Group 3 was a positive control group, and Groups 4 to 31 were test groups of the compounds of the present application. The specific test operation comprised: 100 μL of endothelial cells EA.hy926 (purchased from Suzhou Beina Chuanglian Biotechnology Co., Ltd.) with a density of 5×10^4 was added to each well of a 96-well plate, and transferred to an incubator at 37° C. with 5% CO2 and saturated humidity conditions and cultured for 24 hours, 100 μL of 2× the test compound solution prepared and diluted with DMEM medium containing 10% fetal bovine serum was added, in which the test compound added in the positive control group was Fasudil hydrochloride (purchased from Beijing Sihuan Pharmaceutical Co., Ltd., SFDA approval number H20173349) solution with different concentrations, an equal volume of DMEM medium was added in the blank control group, an equal volume of PBS buffer was added in the normal control group, and a duplicate well was set for each concentration point. After adding the test compound, the culture was continued in the incubator for 24 hours, then 20 μL of CCK-8 detection solution (purchased from Beijing Solarbio Science & Technology Co., Ltd., Cat. No. CA1210) was added to each well, interacted at 37° C. for 2.5 hours, shaken and mixed well, and then the absorbance value at 450 nm was detected.
# OD values were detected, and the cell viability values of test groups of different concentrations were calculated according to the cell viability calculation formula as follows: Cell viability=(Atest group−Ablank control)/(Anormal control−Ablank control)*100%
# wherein A represented absorbance value at 450 nm.
# Prism6.0 was used to obtain the inhibitor concentration-viability curve and to calculate the IC50 of the test compound, the correlation coefficient R^2>0.99; the inhibitor concentration-viability curves of Fasudil hydrochloride, R-YK1601, R-YK1603, R-YK1606, R-YK1607, R-YK1610 were shown in FIGS. 1 to 6, in which the abscissa was the logarithm on base 10 of the concentration of the test compound, and the ordinate was the cell activity (i.e., cell viability).
# [2] = test system: subarachnoid hemorrhage in rats; assay: Rat subarachnoid hemorrhage (SAH) model by intravascular puncture, Sugawara bleeding score; assay type: in vivo; set-up: dose or concentration left out as unconfirmed; settings: tail vein injection, 2 administrations 4 h apart, scored 24 h after first administration (Sugawara)
# Protocol: Rat subarachnoid hemorrhage (SAH) model was built by intravascular puncture. After being weighed, the rats were anesthetized with sodium pentobarbital (50 mg/kg) or chloral hydrate (300 mg/kg) by intraperitoneal injection, then fixed on their back and maintained the animal's body temperature at about 37° C. The rats' neck skin was shaved for surgery, a median incision was made on the neck, and muscle and fascia were separated along the inner edge of stemocleidomastoid muscle to expose the main and bifurcation of right common carotid artery, and expose the external and internal carotid arteries.
# The bifurcation of internal carotid artery was gently clamped with ophthalmic forceps, the bifurcation of the internal carotid artery and the external carotid artery was pierced with a 6-gauge syringe needle, the ophthalmic forceps holding the bifurcation of internal carotid artery was slightly loosen, and No. 3 fishing thread was used to perform a puncture at the bleeding point, the ophthalmic forceps on the internal carotid artery was loosen, and the fishing thread was inserted into skull. […] After staying for 15 seconds, the thread for puncture was completely removed, and the skin was sutured after compression to stop the bleeding. 1.6 million units of penicillin potassium (400,000 units/ml, 0.2 ml/rat) was intramuscularly injected to avoid wound infection. For the sham operation group, the thread for puncture was removed when resistance was felt without piercing the bifurcation of the anterior cerebral artery and the middle cerebral artery, while the remaining operation steps were the same as the model group. After the operation, the rats were transferred to a thermal insulation blanket, then transferred to a squirrel cage when they were basically awake, and kept normally.
# In this test experimental, 32 groups were set, i.e., Groups 1 to 32, in which Group 1 was a normal control group (healthy rats), Group 2 was a sham operation control group (not modeling by puncture), Group 3 was a model control group (modeling by puncture, administrated with normal saline), Group 4 was a positive control group (modeling by puncture, administrated with fasudil hydrochloride injection), and Groups 5 to 32 were test groups of the compounds of the present application (modeling by puncture, respectively administrated with the compounds of the present application); and there were 8 animals (purchased from SPF (Beijing) Biotechnology Co., Ltd., the certificate number was SYXK (Beijing) 2016-0002) in each group, half of them were female and half of them were male. The animals were subjected to fasting for 12 to 18 hours without prohibition of drinking water before modeling. […] The rats were euthanized 24 h after the first administration, and the brains were taken. According to Sugawara's method (Reference: Sugawara T, Ayer R, Jadhav V, et al. A new grading system evaluating bleeding scale in filament perforation subarachnoid hemorrhage rat model. J Neurosci Methods. 2008, 167(2):327-34), the subarachnoid hemorrhage amounts were scored, and the scoring results were as follows: […]
structure (smiles),measurement,setting,value
"CC1CNCCCN1S(=O)(=O)c1cccc2c(O)ncc(C3CC3)c12 (racemic) [Compound YK1600-1, 4-cyclopropyl-5-((2-methyl-1,4-diazacycloheptan-1-yl)sulfonyl)isoquinolin-1-ol]",IC50 at 24 h,[1],97.8 µM
same,Cerebral hemorrhage volume score (x ± s),[2],14.36 ± 2.53
"COc1ncc(C2CC2)c2c(S(=O)(=O)N3CCCNCC3C)cccc12 (racemic) [Compound YK1600-2, 4-cyclopropyl-1-methoxy-5-((2-methyl-1,4-diazacycloheptan-1-yl)sulfonyl)isoquinoline]",IC50 at 24 h,[1],85.1 µM
same,Cerebral hemorrhage volume score (x ± s),[2],14.49 ± 2.62
"CC1CNCCCN1S(=O)(=O)c1cccc2c(O)nccc12 (racemic) [Compound YK1601, 5-((2-methyl-1,4-diazacycloheptan-1-yl)sulfonyl)isoquinolin-1-ol]",IC50 at 24 h,[1],496 µM
same,Cerebral hemorrhage volume score (x ± s),[2],12.75 ± 2.01
"COc1nccc2c(S(=O)(=O)N3CCCNCC3C)cccc12 (racemic) [Compound YK1602, 1-methoxy-5-((2-methyl-1,4-diazacycloheptan-1-yl)sulfonyl)isoquinoline]",IC50 at 24 h,[1],333 µM
same,Cerebral hemorrhage volume score (x ± s),[2],12.92 ± 2.03
"CC1CNCCCN1S(=O)(=O)c1cccc2cnccc12 (racemic) [Compound YK1603, 5-((2-methyl-1,4-diazacycloheptan-1-yl)sulfonyl)isoquinoline]",IC50 at 24 h,[1],176 µM
same,Cerebral hemorrhage volume score (x ± s),[2],12.96 ± 1.99
"CC1CNCCCN1S(=O)(=O)c1cccc2c(O)ncc(F)c12 (racemic) [Compound YK1604, 4-fluoro-5-((2-methyl-1,4-diazacycloheptan-1-yl)sulfonyl)isoquinolin-1-ol]",IC50 at 24 h,[1],130 µM
same,Cerebral hemorrhage volume score (x ± s),[2],13.08 ± 1.97
"COc1ncc(F)c2c(S(=O)(=O)N3CCCNCC3C)cccc12 (racemic) [Compound YK1605, 4-fluoro-1-methoxy-5-((2-methyl-1,4-diazacycloheptan-1-yl)sulfonyl)isoquinoline]",IC50 at 24 h,[1],103 µM
same,Cerebral hemorrhage volume score (x ± s),[2],13.95 ± 2.02
"CC1CNCCCN1S(=O)(=O)c1cccc2c(O)ncc(Cl)c12 (racemic) [Compound YK1606, 4-chloro-5-((2-methyl-1,4-diazacycloheptan-1-yl)sulfonyl)isoquinolin-1-ol]",IC50 at 24 h,[1],98 µM
same,Cerebral hemorrhage volume score (x ± s),[2],13.71 ± 2.03
"CCc1cnc(O)c2cccc(S(=O)(=O)N3CCCNCC3C)c12 (racemic) [Compound YK1607, 4-ethyl-5-((2-methyl-1,4-diazacycloheptan-1-yl)sulfonyl)isoquinolin-1-ol]",IC50 at 24 h,[1],139 µM
same,Cerebral hemorrhage volume score (x ± s),[2],13.09 ± 2.09
"O=S(=O)(c1cccc2cnccc12)N1CCCNCC1C1CC1 (racemic) [Compound YK1608, 5-((2-cyclopropyl-1,4-diazacycloheptan-1-yl)sulfonyl)isoquinoline]",IC50 at 24 h,[1],165 µM
same,Cerebral hemorrhage volume score (x ± s),[2],13.98 ± 2.01
"CC(C)C1CNCCCN1S(=O)(=O)c1cccc2c(O)nccc12 (racemic) [Compound YK1609, 5-((2-isopropyl-1,4-diazacycloheptan-1-yl)sulfonyl)isoquinolin-1-ol]",IC50 at 24 h,[1],228 µM
same,Cerebral hemorrhage volume score (x ± s),[2],13.27 ± 1.96
"CCC1CNCCCN1S(=O)(=O)c1cccc2c(OC)nccc12 (racemic) [Compound YK1610, 5-((2-ethyl-1,4-diazacycloheptan-1-yl)sulfonyl)-1-methoxyisoquinoline]",IC50 at 24 h,[1],98.8 µM
same,Cerebral hemorrhage volume score (x ± s),[2],13.83 ± 2.01
"CCCCC1CNCCCN1S(=O)(=O)c1cccc2c(O)nccc12 (racemic) [Compound YK1611, 5-((2-butyl-1,4-diazacycloheptan-1-yl)sulfonyl)isoquinolin-1-ol]",IC50 at 24 h,[1],184 µM
same,Cerebral hemorrhage volume score (x ± s),[2],13.39 ± 2.03
"COc1nccc2c(S(=O)(=O)N3CCCNCC3CCC(C)C)cccc12 (racemic) [Compound YK1612, 5-((2-isopentyl-1,4-diazacycloheptan-1-yl)sulfonyl)-1-methoxyisoquinoline]",IC50 at 24 h,[1],89.6 µM
same,Cerebral hemorrhage volume score (x ± s),[2],14.05 ± 1.96
